Values quoted from earlier work in US20100009005A1, “Novel acetysalicylic acid formulations” (Flamel Technologies ,S.A., priority 2005, published 2010).

time of peak plasma concentrations (after oral administration): 2 to 3 h
half life (in vivo): about 17 hours
Structure (SMILES): CS(=O)(=O)c1ccc(C2=C(c3ccccc3)C(=O)OC2)cc1 [rofecoxib]
